Consider four molecules from patent US5620676A, “Biologically active ATP analogs” (priority 1995, dated 1997).

Entries after “also recorded” stand apart in the source; their conditions may differ. Read-outs that look alike come from different tables or passages of the source.

In one data set the test system is P2Y receptors. The following applies: literature; cited from earlier work.
A further data set deals with P2U receptors. The following applies: literature; cited from earlier work.
The test system of a further data set is nucleotidases. The settings on record: Zimmet et al.; Jacobson et al.; cited from earlier work.
Data set [1] deals with T1, P2Y receptor (taenia coli) (Cavia porcellus, UniProt P59902).
T1 construct: Relaxant responses mediated via P2Y receptors were examined in guinea pig taenia coli; from tissue; host or cells: guinea pig taenia coli (carbachol-contracted)
T1 sequence (P59902 whole entry): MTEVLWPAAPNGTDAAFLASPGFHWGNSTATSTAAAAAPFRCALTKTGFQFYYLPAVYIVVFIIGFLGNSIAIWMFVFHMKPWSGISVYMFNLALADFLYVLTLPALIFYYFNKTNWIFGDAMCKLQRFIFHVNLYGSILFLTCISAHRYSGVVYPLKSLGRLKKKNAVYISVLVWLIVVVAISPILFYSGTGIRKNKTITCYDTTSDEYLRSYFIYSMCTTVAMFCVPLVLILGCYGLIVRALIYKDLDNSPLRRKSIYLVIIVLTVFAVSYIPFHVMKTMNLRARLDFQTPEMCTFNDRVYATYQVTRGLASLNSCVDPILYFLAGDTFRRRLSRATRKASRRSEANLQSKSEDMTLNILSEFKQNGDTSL
The following applies: guinea pig taenia coli, cited from earlier work.

Data set [2] concerns P2Y receptor (aorta endothelium). Description: Relaxation of noradrenalin-contracted rabbit aorta. The settings on record: rabbit aorta; log molar units.
For data set [3], the target named is T2, adenylyl cyclase linked P2Y receptor (C6 rat glioma cells) (Rattus norvegicus, UniProt Q9EPX4).
T2 construct: endogenous in cells; host or cells: C6 rat glioma cells
T2 sequence (Q9EPX4 whole entry): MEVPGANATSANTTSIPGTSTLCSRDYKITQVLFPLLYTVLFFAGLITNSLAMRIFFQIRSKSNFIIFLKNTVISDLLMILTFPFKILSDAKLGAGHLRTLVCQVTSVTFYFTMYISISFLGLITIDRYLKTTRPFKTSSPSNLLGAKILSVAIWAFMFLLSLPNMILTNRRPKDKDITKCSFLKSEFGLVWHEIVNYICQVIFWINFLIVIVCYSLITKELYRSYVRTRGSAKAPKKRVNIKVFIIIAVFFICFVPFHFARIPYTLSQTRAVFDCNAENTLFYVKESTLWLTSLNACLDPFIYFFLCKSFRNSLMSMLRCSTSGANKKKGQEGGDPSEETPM
Description: Inhibition of adenylyl cyclase in C6 rat glioma cells. It counts as cell-based. The settings on record: versus phospholipase C linked turkey erythrocyte receptor. As to the method: This example illustrates the inhibition of adenylyl cyclase activity in C6 rat glioma cells, as a function of the presence of certain ATP analogs in the medium in which the C6 cells were cultured.
Cells were labelled by incubation for 2 hours in the presence of 1 to 2 mCi of tritiated adenine/ml in the medium. Cells were washed twice with HEPES (20 mM, pH 7.5)-buffered Eagle's medium and then preincubated for 10 minutes at 37° C. with fresh medium containing 200 μM 3-isobutyl-1-methylxanthine. Agonist incubations were initiated by the simultaneous addition of 10 μM isoproterenol and various concentrations of nucleotides. The reactions were stopped after 10 minutes of aspiration of the nucleotide-containing medium and addition of 1 ml of ice-cold 5% trichloroacetic acid.

In data set [4] the target is P2Y receptor (mesenteric artery). Put plainly: Relaxation of rabbit mesenteric artery. The following applies: log molar units.
Description: Muscular relaxation/contraction: Relaxant responses mediated via P2Y receptors were examined in guinea pig taenia coli, rabbit aorta, and rabbit mesenteric artery, as described by Hoyle et al. (Br. J. Pharmacol., 107, 367-374 (1992a)), Burnstock et al., (Br. J. Pharmacol., 90, 383-391 (1987a)), and Rubino et al., (Eur. J. Pharmacol., 212, 237-240 (1992)).
Data set [5] deals with T1, P2Y receptor (taenia coli). Description: Relaxation of carbachol-contracted guinea pig taenia coli. The method, boiled down:
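Guinea pig taenia coli precontracted with 50 nM carbachol; relaxation to applied P2Y agonists expressed as percentage relaxation against negative log molar agonist concentration.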

Data set [6] deals with T3, P2Y receptor (turkey erythrocyte membranes) (Meleagris gallopavo, UniProt P49652).
T3 construct: from tissue; host or cells: washed turkey erythrocytes, ghosts prepared by hypotonic lysis
T3 sequence (P49652 whole entry): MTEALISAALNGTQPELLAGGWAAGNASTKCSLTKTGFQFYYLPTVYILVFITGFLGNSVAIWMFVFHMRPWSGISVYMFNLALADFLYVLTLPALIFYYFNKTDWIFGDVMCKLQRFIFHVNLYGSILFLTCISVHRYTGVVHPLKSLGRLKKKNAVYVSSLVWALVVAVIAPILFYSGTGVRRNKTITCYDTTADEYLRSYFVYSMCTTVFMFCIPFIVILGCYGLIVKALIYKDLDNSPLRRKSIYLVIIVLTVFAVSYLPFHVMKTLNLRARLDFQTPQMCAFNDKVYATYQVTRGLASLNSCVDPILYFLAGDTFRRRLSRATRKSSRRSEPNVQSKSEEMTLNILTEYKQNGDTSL
Description: Stimulation of phospholipase C (inositol phosphate formation) in turkey erythrocyte membranes. It counts as biochemical. Put shortly: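 Erythrocytes were labelled 18-24 h at 37 °C with [3H]myoinositol, and ghosts were made by hypotonic lysis. Ghosts (≈175 μg protein) were incubated 5 min at 30 °C in Hepes buffer pH 7.0 with 1 μM GTPγS and nucleotide analogs. Total [3H]inositol phosphates were purified by anion exchange; K0.5 averaged from 3-8 dose-response curves.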

The test system of data set [7] is P2X and P2Y receptors. Description: Overall activity in the seven P2X and P2Y preparations.
Data set [8] relates to P2X and P2Y receptors. The settings on record: Satchell and Maguire; cited from earlier work.
In data set [9] the target is T4, P2X receptor (vas deferens) (Cavia porcellus, UniProt A0A286XVA9).
T4 sequence (A0A286XVA9 1-399): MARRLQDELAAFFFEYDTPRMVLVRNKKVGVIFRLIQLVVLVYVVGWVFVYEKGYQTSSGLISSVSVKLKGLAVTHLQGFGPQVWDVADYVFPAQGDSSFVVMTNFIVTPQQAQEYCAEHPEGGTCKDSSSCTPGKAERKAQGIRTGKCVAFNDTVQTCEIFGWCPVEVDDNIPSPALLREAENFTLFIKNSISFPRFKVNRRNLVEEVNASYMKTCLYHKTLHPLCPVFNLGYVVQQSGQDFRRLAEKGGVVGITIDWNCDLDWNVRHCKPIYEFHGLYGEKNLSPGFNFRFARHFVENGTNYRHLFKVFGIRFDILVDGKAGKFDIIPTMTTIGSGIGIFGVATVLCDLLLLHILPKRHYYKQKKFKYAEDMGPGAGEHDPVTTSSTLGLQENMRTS
Description: Contraction of guinea pig isolated vas deferens.

The target in data set [10] is T5, P2X receptor (urinary bladder) (Cavia porcellus, UniProt A0A286XVA9).
T5 construct: guinea pig isolated urinary bladder detrussor muscle; from tissue; host or cells: guinea pig isolated urinary bladder detrusor muscle
Put plainly: Contraction of guinea pig isolated urinary bladder detrussor muscle. The settings on record: guinea pig urinary bladder.

Data set [11] concerns the target T6, P2X receptor (saphenous artery) (Oryctolagus cuniculus, UniProt G1U3D6).
T6 construct: and rabbit saphenous artery; from tissue; host or cells: rabbit saphenous artery
T6 sequence (G1U3D6 1-399): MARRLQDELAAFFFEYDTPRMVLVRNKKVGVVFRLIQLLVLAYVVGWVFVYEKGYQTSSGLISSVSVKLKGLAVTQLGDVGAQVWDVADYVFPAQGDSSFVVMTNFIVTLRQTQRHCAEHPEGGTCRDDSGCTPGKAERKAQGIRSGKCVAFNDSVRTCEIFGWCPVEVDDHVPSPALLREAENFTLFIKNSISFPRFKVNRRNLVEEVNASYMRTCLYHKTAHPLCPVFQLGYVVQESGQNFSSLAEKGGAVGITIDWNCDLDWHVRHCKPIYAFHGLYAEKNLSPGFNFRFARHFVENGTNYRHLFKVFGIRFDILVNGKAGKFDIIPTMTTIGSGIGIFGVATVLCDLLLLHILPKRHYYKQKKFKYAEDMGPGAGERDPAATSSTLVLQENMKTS
Description: Contraction of rabbit saphenous artery. The following applies: for activation at 10 µM: read-out: response at 10 μM relative to the contraction produced by 1 μM α,MeATP, saph. artery. The method, boiled down:
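Contraction of isolated rabbit saphenous artery, standard organ-bath methods; responses at 10 μM expressed as percentage of contraction produced by 1 μM α,MeATP. Highest analogue concentrations tested were 3-30 […].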

In data set [12] the target is T4, P2X receptor (vas deferens). The settings on record: guinea pig vas deferens; log molar units; footnote e: literature data; cited from earlier work.
Data set [13] concerns the target T6, P2X receptor (saphenous artery). The settings on record: Burnstock et al., 1987a; cited from earlier work.
Data set [14] concerns the target T5, P2X receptor (urinary bladder). The following applies: cited from earlier work.
For data set [15], the system named is P2X receptor (vas deferens). The settings on record: Burnstock et al. 1985; cited from earlier work.
The mark [16] stands for this setting: turkey erythrocyte membranes, mean ± S.E.M. for at least 2 determinations, read-out: phosphatidyl inositol metabolism (K0.5, nM) erythrocyte.

Turning to `CSc1nc(N)c2ncn([C@@H]3O[C@H](COP(=O)(O)OP(=O)(O)OP(=O)(O)O)[C@@H](O)[C@H]3O)c2n1` [2-MeS-ATP, 2-methylthio-ATP], the “P2Y receptor affinity/potency, in words” value with P2Y receptors is “high affinity for P2Y receptors; also recorded: One of the most potent known P2Y receptor agonists”. Moreover, in the data set with P2U receptors, the “potency at P2U receptors, in words” value was “much less potent than ATP at P2U -receptors”. For the same molecule, in the data set on nucleotidases, the “stability to nucleotidases, in words” value was “susceptible to ectonucleotidases”. Moreover, the “pD2, taenia coli, as reported by Hoyle et al.” value in data set [1] was 8.0±0.15. The “relaxation pD2, aorta” value in data set [2] is given as 6.8. In addition, the “selectivity for the adenylyl cyclase linked (C6 cell) receptor” value in data set [3] was 7.3 -fold. In data set [4], the “relaxation pD2, mes. artery” value is 6.5. In addition, the EC50 in data set [5] was 0.01 µM; in [6] (setting [16]), 8 ± 2 nM; in [6] (turkey erythrocyte membranes, read-out: K0.5), 8 nM.
With `Nc1ncnc2c1nc(Br)n2[C@@H]1O[C@H](COP(=O)(O)OP(=O)(O)OP(=O)(O)O)[C@@H](O)[C@H]1O` [8-Br-ATP, 8-Bromoadenosine 5'-triphosphate], in the data set with P2X and P2Y receptors [7], the “overall activity in words, all preparations” value is on record as “relatively ineffective at the receptors tested in this study”. The “activity at P2 receptors, in words” value in the data set with P2X and P2Y receptors [8] is “somewhat active at P2 receptors”. In data set [6] (setting [16]), the EC50 is 47400 nM. Besides, the “activity/potency in words, vas deferens” value in [9] is “inactive in the vas deferens”. In addition, the “activity/potency in words, bladder” value in data set [10] is reported as “limited activity in the urinary bladder”.
On to `Nc1ncnc2c1ncn2[C@@H]1O[C@H](COP(=O)(O)OP(=O)(O)OP(=O)(O)O)[C@@H](O)[C@H]1O` [ATP, adenosine-5'-triphosphate, reference compound], for which the EC50 in data set [11] was 1780 µM; in data set [5], 0.631 µM; in [6] (K0.5, turkey erythrocyte membranes, read from graph), 10000 nM; in data set [6] (setting [16]) it was 2800 ± 700 nM. Besides, in data set [11], the activation at 10 µM is 5%. In [2], the “relaxation pD2, aorta” value is on record as 4.5. Also, the “relaxation pD2, mes. artery” value in data set [4] was 6.0. In addition, the “contraction pD2, vas” value in data set [12] is 3.5. Further, the “relaxation pD2, taenia coli” value in data set [5] (guinea pig taenia coli, log molar units) was found to be 6.2 ± 0.08.
As for `Nc1ncnc2c1ncn2[C@@H]1O[C@H](COP(=O)(O)CP(=O)(O)OP(=O)(O)O)[C@@H](O)[C@H]1O` [a,β-Me-ATP, α,β-methylene-ATP], the “activity in words, saphenous artery” value in data set [13] was “a potent constrictor”. The “activity in words, urinary bladder” value in data set [14] (Burnstock et al. 1985) is given as “a potent constrictor”. Further, the “contraction pD2, bladder” value in data set [14] (guinea pig urinary bladder, log molar units, footnote e: literature data) was 5.7. In addition, the “contraction produced by 1 μM, saphenous artery” value in [11] (rabbit saphenous artery, 1 μM) is listed as “half maximal effect”. Further, in data set [11], the activation at 10 µM was 5.9%. For the same molecule, in data set [1] (log molar units, footnote e: literature data), the “relaxation pD2, taenia coli” value is recorded as 5.6. In addition, in data set [15], the “activity in words, vas deferens” value is “a potent constrictor”. For the same molecule, in data set [12], the “contraction pD2, vas” value is recorded as 5.3. In addition, in data set [5] (guinea pig taenia coli), the “activity/potency in words, taenia coli” value is given as “reduced activity in the taenia coli”. In [6] (turkey erythrocyte membranes), the “activity/potency in words, turkey erythrocyte” value was “a very weak, yet full agonist”. Besides, the EC50 in data set [6] (setting [16]) was > 100000 nM. Moreover, the “activity/potency in words, vas deferens” value in [9] is on record as “markedly enhanced activity”. In addition, the “activity/potency in words, bladder” value in [10] is “markedly enhanced activity”.
